# Measured values reported in article PMC11714206, “Massively Parallel Screening of Toll/Interleukin‐1 Receptor (TIR)‐Derived Peptides Reveals Multiple Toll‐Like Receptors (TLRs)‐Targeting Immunomodulatory Peptides” (Advanced Science, 2024).
# Values joined by “and” are separate entries in the source; they are usually repeats but may differ in a detail not shown here. Equal values may be shown once.
# Target: T1, MAL^TIR (Homo sapiens, UniProt P58753)
# T1 construct: MAL (residues 79–221); 6xHis; made in house; host or cells: E. coli BL21 (DE3)
# T1 sequence (P58753 79-221): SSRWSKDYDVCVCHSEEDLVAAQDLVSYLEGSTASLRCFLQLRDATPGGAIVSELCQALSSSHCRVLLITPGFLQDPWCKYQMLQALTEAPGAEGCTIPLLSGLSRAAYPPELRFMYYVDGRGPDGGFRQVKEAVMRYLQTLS
# Assay: T‐Surf phage library (P8 and P3) selection against MAL^TIR, four rounds, NGS read counts
# Format: binding
# Settings: for P8_MAL Rank (after) / P8_MAL Rank (before): P8 library; for Population: P8_MAL pool: P8 T-Surf phage library, 4th round of selection against MAL TIR, share of NGS reads; for P3_MAL Rank (after) / P3_MAL Rank (before): P3 library
# How it was run: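 Read counts come from NGS of phage pools after the fourth selection round, barcoded by 20-cycle PCR and filtered for quality ≥30. Each round: phage incubated 1 h at RT on immobilised TIR protein (5 µg mL^−1, BSA-blocked), washed, HCl-eluted and amplified in E. coli TG1.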
# [1] = P8_MAL: rank by count after grouping
# [2] = P8_MAL: rank by count before grouping
# [3] = selection against MAL TIR, rank by count after grouping
# [4] = selection against MAL TIR, rank by count before grouping
# [5] = selection against MAL, rank after grouping
# [6] = selection against MAL, rank before grouping
# [7] = selection against MAL, rank by count after grouping
# [8] = selection against MAL, rank by count before grouping
# [9] = 4R selection against MAL, rank after grouping
# [10] = 4R selection against MAL, rank before grouping
# [11] = P3_MAL: rank by count after grouping
# [12] = P3_MAL: rank by count before grouping
sequence,measurement,setting,value
TFLAICIMRWCRRAF,Rank (after),[1],99
same,Rank (before),[2],718
TFLATLYNALAQAGIH,Rank (after),[1],449
same,Rank (before),[2],2620
TFLCHLYSTLVQARIH,Rank (after),[1],402
same,Rank (before),[2],2546
TFLCHQYNALVQAGIH,P8_MAL Rank (after),[3],219
same,P8_MAL Rank (before),[4],2547
TFLDRLYNPLVHAGIH,Rank (after),[1],400
same,Rank (before),[2],2621
TFLDTLLNKLAQAAIH,Rank (after),[1],470
same,Rank (before),[2],2626
TFLGAQHKTVVRAATH,P8_MAL Rank (after),[5],524
same,P8_MAL Rank (before),[6],2534
TFLGFLYIALVQAGFL,P8_MAL Rank (after),[7],724
same,P8_MAL Rank (before),[8],2549
TFLGHLHNALVQAGNH,Rank (after),[1],432
same,Rank (before),[2],2608
TFLGHLLNALVQTDIL,P8_MAL Rank (after),[5],508
same,P8_MAL Rank (before),[6],2607
TFLGHLSNGLVQAGIH,Rank (after),[1],478
same,Rank (before),[2],2556
TFLGHLYIALVQTGIH,P8_MAL Rank (after),[3],261
same,P8_MAL Rank (before),[4],2558
TFLGHLYIAMVQAAIH,P8_MAL Rank (after),[5],528
same,P8_MAL Rank (before),[6],2559
TFLGHLYMRWCRRAF,P8_MAL Rank (after),[9],625
same,P8_MAL Rank (before),[10],2560
TFLGHLYNALLQPGIH,Rank (after),[1],181
same,Rank (before),[2],2616
TFLGHLYNALLRSDGR,P8_MAL Rank (after),[9],654
same,P8_MAL Rank (before),[10],2590
TFLGHLYNALVQAAF,Rank (after),[1],453
same,Rank (before),[2],2584
TFLGHLYNALVQAGI,P8_MAL Rank (after),[5],498
same,P8_MAL Rank (before),[6],2582
TFLGHLYNALVQAGIH,Population,,0.00463% and 0.00432% and 0.00402%
TFLGHLYNALVQAGIP,Population,,0.00463%
TFLGHLYNALVQAGIRAFL,P8_MAL Rank (after),[9],588
same,P8_MAL Rank (before),[10],2579
TFLGHLYNALVQAGKL,P8_MAL Rank (after),[3],230
same,P8_MAL Rank (before),[4],2583
TFLGHLYNALVQTGIP,Rank (after),[1],112
same,Rank (before),[2],2569
TFLGHLYNMLIQAGIH,Rank (after),[1],393
same,Rank (before),[2],2595
TFLGHLYNSLVQAGTH,P8_MAL Rank (after),[9],633
same,P8_MAL Rank (before),[10],2563
TFLGHLYNTLVHAGTH,Rank (after),[1],397
same,Rank (before),[2],2600
TFLGHLYNTLVQACIH,P8_MAL Rank (after),[9],650
same,P8_MAL Rank (before),[10],2598
TFLGHLYNTLVQASIF,Rank (after),[1],391
same,Rank (before),[2],2537
TFLGHLYNTLVQPAIH,P8_MAL Rank (after),[9],620
same,P8_MAL Rank (before),[10],2596
TFLGHLYSALVHAGIH,Rank (after),[1],479
same,Rank (before),[2],2561
TFLGNLYNALVKAGIH,Rank (after),[1],135
same,Rank (before),[2],2614
TFLGNLYNPLVQAGLH,P8_MAL Rank (after),[5],521
same,P8_MAL Rank (before),[6],2615
TFLGPLLNALVQAGIH,Rank (after),[1],388
same,Rank (before),[2],2536
TFLGPLYNALVQAGIP,Rank (after),[1],120
same,Rank (before),[2],2553
TFLGPQYNALVQAGTH,P8_MAL Rank (after),[5],484
same,P8_MAL Rank (before),[6],2554
TFLGQTYNAQAPAEIP,P8_MAL Rank (after),[9],644
same,P8_MAL Rank (before),[10],2613
TFLIHQNNARMHANIL,P8_MAL Rank (after),[3],253
same,P8_MAL Rank (before),[4],2545
TFLRHLYNALVQAGLH,P8_MAL Rank (after),[3],245
same,P8_MAL Rank (before),[4],2627
TFLYTFLINLTHPTNY,P8_MAL Rank (after),[9],674
same,P8_MAL Rank (before),[10],2533
TFPGHLYNALVQAGIL,Rank (after),[1],180
same,Rank (before),[2],2633
TLLCHLYNALVQAGIH,P8_MAL Rank (after),[3],239
same,P8_MAL Rank (before),[4],2637
TLLDHLCNELVQAGIH,P8_MAL Rank (after),[7],721
same,P8_MAL Rank (before),[8],2639
TRFCDRRCLTVAGSSA,Rank (after),[11],409
same,Rank (before),[12],3235
TRPYLDWPQEPEMHEA,Rank (after),[1],434
same,Rank (before),[2],2652
TSFREGLLRLLELSKK,P3_MAL Rank (after),[7],754
same,P3_MAL Rank (before),[8],3239
TSHLHHAMRLNKIDTF,P3_MAL Rank (after),[9],633
same,P3_MAL Rank (before),[10],3244
TYLGNLNNALVQAGIH,P8_MAL Rank (after),[5],490
same,P8_MAL Rank (before),[6],2649
VELAQVRKQRDAGEKV,Rank (after),[11],412
same,Rank (before),[12],1644
VEPTQGRKQLGAVENA,P3_MAL Rank (after),[5],573
same,P3_MAL Rank (before),[6],1683
VEPTQVRKLRGAVEKV,P3_MAL Rank (after),[7],743
same,P3_MAL Rank (before),[8],1658
VEPTQVRKQRCGGKC,P3_MAL Rank (after),[7],760
same,P3_MAL Rank (before),[8],1661
VEPTQVRKQSGAVEM,P3_MAL Rank (after),[7],716
same,P3_MAL Rank (before),[8],1671
